Patent US20100240084A1, “USE OF THE PROTIEN MABA (FABG1) OF MYCOBACTERIUM TUBERCULOSIS FOR DESIGNING AND SCREENING ANTIBIOTICS” (priority 2002, published 2010)

Key:
enoyl-reductase = details: Kikuchi et al., 1989, cited from earlier work
β-ketoacyl reductase = details: Kikuchi et al., 1989, cited from earlier work
protein MabA [1] = biological target: T1, protein MabA (Mycobacterium tuberculosis, UniProt P9WGT3); assay: Inhibition of the β-ketoacyl reductase activity of MabA after preincubation with antibiotic, NADPH and MnCl2; format: biochemical
[2] = aqueous solutions; Constantinides & Steim, 1985; cited from earlier work
InhA [3] = biological target: T2, InhA (Mycobacterium tuberculosis, UniProt P9WGR1); details: 100 μM ETH, in the presence of MnCl2 and NADH
InhA [4] = biological target: T2, InhA; details: cited from earlier work
[5] = tested on: CCCCCCCCCCC(=O)C(=O)SCCNC(=O)CCNC(=O)[C@H](O)C(C)(C)COP(=O)(O)OP(=O)(O)OC[C@H]1O[C@@H](n2cnc3c(N)ncnc32)[C@H](O)[C@@H]1OP(=O)(O)O; assay: purified protein, by the assay type
[6] = tested on: CCCCCCC(=O)C(=O)SCCNC(=O)CCNC(=O)[C@H](O)C(C)(C)COP(=O)(O)OP(=O)(O)OC[C@H]1O[C@@H](n2cnc3c(N)ncnc32)[C@H](O)[C@@H]1OP(=O)(O)O; assay: purified protein, by the assay type
[7] = tested on: CC(=O)CC(=O)SCCNC(=O)CCNC(=O)[C@H](O)C(C)(C)COP(=O)(O)OP(=O)(O)OC[C@H]1O[C@@H](n2cnc3c(N)ncnc32)[C@H](O)[C@@H]1OP(=O)(O)O; assay: purified protein, by the assay type
protein MabA [8] = biological target: T1, protein MabA; assay: MabA enzymatic kinetics test (NADPH oxidation at 340 nm)
[9] = other: section 4.1, 25° C., 80 mM sodium phosphate, NADPH Km at 460 μM acetoacetyl-CoA, β-ketoacyl-CoA Km at 100 μM NADPH

T1 sequence (P9WGT3 whole entry, looked up): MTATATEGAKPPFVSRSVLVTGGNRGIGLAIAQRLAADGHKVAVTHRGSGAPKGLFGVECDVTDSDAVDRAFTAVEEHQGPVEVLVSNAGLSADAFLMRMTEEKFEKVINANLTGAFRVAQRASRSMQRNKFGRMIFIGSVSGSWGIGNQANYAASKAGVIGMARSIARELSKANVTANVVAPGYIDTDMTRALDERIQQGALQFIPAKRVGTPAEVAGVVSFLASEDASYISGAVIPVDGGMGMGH
T2 sequence (P9WGR1 whole entry, looked up): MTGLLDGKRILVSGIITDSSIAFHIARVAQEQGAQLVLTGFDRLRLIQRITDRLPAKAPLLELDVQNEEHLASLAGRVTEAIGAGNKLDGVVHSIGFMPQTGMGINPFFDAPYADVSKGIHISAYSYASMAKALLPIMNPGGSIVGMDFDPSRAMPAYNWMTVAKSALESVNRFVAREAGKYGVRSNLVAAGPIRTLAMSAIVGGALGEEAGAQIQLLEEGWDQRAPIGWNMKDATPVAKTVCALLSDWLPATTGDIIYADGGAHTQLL

NNC(=O)c1ccncc1 [isoniazid, isonicotinic acid hydrazide]
Ki (enoyl-reductase): 5.5 mM
inhibition of enoyl-reductase (enoyl-reductase; isoniazid 2 mM): 26%
Ki (β-ketoacyl reductase): 0.353 mM
inhibition of β-ketoacyl reductase (β-ketoacyl reductase; isoniazid 2 mM): 93%
inhibition of the activity of MabA compared with the control without INH (protein MabA [1]; 100 μM INH, MabA 150 nM preincubated 2 hours with 100 μM NADPH and 1 μM MnCl2, acetoacetyl-CoA substrate): 44±3%
inhibition at 2000 µM (protein MabA [1]; 2 mM isoniazid, MabA 150 nM preincubated 2 hours with 100 μM NADPH and 1 μM MnCl2, acetoacetyl-CoA substrate): 62 ± 6%
effect of INH on the activity of MabA in the absence of MnCl2 (protein MabA [1]; absence of MnCl2 in the reaction): non-significant reduction

CCCCCCCCCCCCCCCC(=O)SCCNC(=O)CCNC(=O)[C@H](O)C(C)(C)COP(=O)(O)OP(=O)(O)OC[C@H]1O[C@@H](n2cnc3c(N)ncnc32)[C@H](O)[C@@H]1OP(=O)(O)O [palmitoyl-CoA]
CMC (critical micellar concentration) [2]: 70 µM

CCc1cc(C(N)=S)ccn1 [ETH, ethionamide]
effect on the activity of InhA (InhA [3]): unchanged
effect on the activity of MabA (protein MabA [1]; 100 μM ETH, conditions of inhibition by INH, same result as InhA (activity unchanged)): same result

C/C=C/C(=O)SCCNC(=O)CCNC(=O)[C@H](O)C(C)(C)COP(=O)(O)OP(=O)(O)OC[C@H]1O[C@@H](n2cnc3c(N)ncnc32)[C@H](O)[C@@H]1OP(=O)(O)O [crotonoyl-CoA]
activity of InhA in the presence of the 4-carbon substrate (InhA [4]; even at 8 mM, Quémard et al., 1995): no activity

protein MabA (Mycobacterium tuberculosis H37Rv)
Km ([5]; 25.0 °C): 8.3 ± 0.8 µM
kcat ([5]; 25.0 °C): 4.3 ± 0.2 s⁻¹
Km [5, 9]: 9 µM
Km ([6]; 25.0 °C): 70 ± 8 µM
kcat ([6]; 25.0 °C): 3.5 ± 0.0 s⁻¹
Km [6, 9]: 60 µM
Km ([7]; 25.0 °C): 1530 ± 81 µM
kcat ([7]; 25.0 °C): 1.9 ± 0.0 s⁻¹
Km [7, 9]: 1582 µM

NC(=O)C1=CN([C@@H]2O[C@H](COP(=O)(O)OP(=O)(O)OC[C@H]3O[C@@H](n4cnc5c(N)ncnc54)[C@H](O)[C@@H]3O)[C@@H](O)[C@H]2O)C=CC1 [NADH]
Km (InhA [4]; comparison value for InhA, read-out: Km of the protein InhA for its cofactor): 8 µM
MabA activity on substitution of NADPH by NADH (protein MabA [8]; NADH at the same concentration as NADPH in the kinetics test): total loss of the activity

NADPH
Km (protein MabA [8]; read-out: Km of MabA, section 4.1, 25° C., 80 mM sodium phosphate, NADPH Km at 460 μM acetoacetyl-CoA, β-ketoacyl-CoA Km at 100 μM NADPH): 39 µM

CCCCCCCCCCCCCCCCCC(=O)SCCNC(=O)CCNC(=O)[C@H](O)C(C)(C)COP(=O)(O)OP(=O)(O)OC[C@H]1O[C@@H](n2cnc3c(N)ncnc32)[C@H](O)[C@@H]1OP(=O)(O)O [stearoyl-CoA]
CMC (critical micellar concentration) [2]: 12 µM
